Measurements: the supplement of paper PMC10307832

Experiments:
Assay in all cases: relative viability (nuclei count vs DMSO), 5 days (fraction); higher = more cells survive
Neratinib + Luminespib = compound: CCOc1cc2ncc(C#N)c(Nc3ccc(OCc4ccccn4)c(Cl)c3)c2cc1NC(=O)/C=C/CN(C)C [Neratinib] + CCNC(=O)c1noc(-c2cc(C(C)C)c(O)cc2O)c1-c1ccc(CN2CCOCC2)cc1 [Luminespib] (partner 0.01 µM)
Outline: (§1)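 Relative viability divides the nuclei count in treated wells by that in vehicle wells. Lung cancer cell lines were seeded in 1536-well plates, dosed by pin tool the next day, and fixed and stained after 5 days in one step with final 0.05% Triton X-100, 1% formaldehyde and 1 ug/ml Hoechst. Dosing was a single drug or a fixed anchor-drug dose plus five library-drug doses (not always all listed) in √10 steps, and values are medians of duplicate plates imaged at 4×.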

Neratinib + Tozasertib = compound: CCOc1cc2ncc(C#N)c(Nc3ccc(OCc4ccccn4)c(Cl)c3)c2cc1NC(=O)/C=C/CN(C)C [Neratinib] + Cc1cc(Nc2cc(N3CCN(C)CC3)nc(Sc3ccc(NC(=O)C4CC4)cc3)n2)n[nH]1 [Tozasertib] (partner 0.1 µM)
Outline: as §1

Neratinib + Alpelisib = compound: CCOc1cc2ncc(C#N)c(Nc3ccc(OCc4ccccn4)c(Cl)c3)c2cc1NC(=O)/C=C/CN(C)C [Neratinib] + Cc1nc(NC(=O)N2CCC[C@H]2C(N)=O)sc1-c1ccnc(C(C)(C)C(F)(F)F)c1 [Alpelisib] (partner 2 µM)
Outline: as §1

Neratinib + Dasatinib = compound: CCOc1cc2ncc(C#N)c(Nc3ccc(OCc4ccccn4)c(Cl)c3)c2cc1NC(=O)/C=C/CN(C)C [Neratinib] + Cc1nc(Nc2ncc(C(=O)Nc3c(C)cccc3Cl)s2)cc(N2CCN(CCO)CC2)n1 [Dasatinib] (partner 0.075 µM)
Outline: as §1

Cell Line	relative viability (Neratinib + Luminespib; first compound 0.01 µM)	relative viability (Neratinib + Luminespib; first compound 0.03162 µM)	relative viability (Neratinib + Luminespib; first compound 0.3162 µM)	relative viability (Neratinib + Luminespib; first compound 1 µM)	relative viability (Neratinib + Tozasertib; first compound 0.01 µM)	relative viability (Neratinib + Tozasertib; first compound 0.03162 µM)	relative viability (Neratinib + Tozasertib; first compound 0.1 µM)	relative viability (Neratinib + Tozasertib; first compound 0.3162 µM)	relative viability (Neratinib + Tozasertib; first compound 1 µM)	relative viability (Neratinib + Alpelisib; first compound 0.01 µM)	relative viability (Neratinib + Alpelisib; first compound 0.03162 µM)	relative viability (Neratinib + Alpelisib; first compound 0.1 µM)	relative viability (Neratinib + Alpelisib; first compound 0.3162 µM)	relative viability (Neratinib + Alpelisib; first compound 1 µM)	relative viability (Neratinib + Dasatinib; first compound 0.01 µM)	relative viability (Neratinib + Dasatinib; first compound 0.03162 µM)	relative viability (Neratinib + Dasatinib; first compound 0.1 µM)	relative viability (Neratinib + Dasatinib; first compound 0.3162 µM)	relative viability (Neratinib + Dasatinib; first compound 1 µM)	relative viability (Neratinib + Luminespib; first compound 0.1 µM)
LXF-289	0.726	0.805	0.695	0.453	0.22	0.233	0.183	0.174	0.186	1.03	1.04	0.974	0.98	0.765	0.186	0.234	0.162	0.21	0.188	
NCI-H23	0.201	0.231	0.225	0.204	0.371	0.342	0.33	0.298	0.215	0.832	0.716	0.653	0.686	0.329	0.695	0.876	0.779	0.825	0.537	0.203
NCI-H322M	0.852	0.796	0.392	0.352	0.502	0.47	0.451	0.33	0.284	0.657	0.839	0.803	0.478	0.218	0.24	0.237	0.237	0.228	0.293	0.701
NCI-H522	1.12	1.12	0.913	0.655	0.573	0.608	0.571	0.46	0.499						0.94	0.809	0.818	0.786	0.664	1.09
NCI-H1563	0.57	0.498	0.503	0.484						0.815	0.984	0.877	0.843	0.875	0.513	0.485	0.499	0.41	0.332	0.488
NCI-H1648					0.608	0.364	0.54	0.299	0.188											
NCI-H1650	0.201	0.186	0.228	0.203	0.362	0.359	0.292	0.31	0.204						0.309	0.31	0.307	0.304	0.376	0.204
NCI-H1703										0.36	0.354	0.279	0.205	0.165						
NCI-H1792	0.458	0.466	0.358	0.381							0.803	0.639	0.599	0.484	0.769	0.905	0.738	0.684	0.368	0.365
NCI-H2342	0.72	0.717	0.621		0.414	0.52	0.441	0.455	0.358						0.326	0.318	0.285	0.26	0.318	0.712
SW 900	0.184	0.157	0.194	0.169	0.561	0.444	0.673	0.517	0.387						0.544	0.732	0.392	0.458	0.454	0.148
